Legend:
HIV-1 RT (recombinant) = target: T1, HIV-1 RT (recombinant) (Human immunodeficiency virus type 1 group M subtype B, UniProt P04585); experiment: Primer extension assay with HIV-1 RT; type: biochemical; conditions: 37° C., DNA template PF22 (T/U triphosphates) or PF24 (C triphosphates), three contiguous units
T1 construct: Reverse transcriptases (RT): • MMLV-RT (MMLV or MM; source: Fermentas); • HIV-1 RT (recombinant); purchased Worthington Biochemical Corp
Excerpt: (§1) Primer extension assays were used to assess the incorporation of 2′F-araNTP on the various DNA templates (Table 1). The DNA primer (PF20) was first radioactively labeled at the 5′-hydroxyl terminus with a radioactive phosphorus probe and the enzyme T4 polynucleotide kinase (T4 PNK) (see Example 1 for General Methods). To assess the incorporation of 2′F-araNTPs, the primer and template were annealed, and the nucleoside 5′-triphosphates added in the presence of enzyme under the conditions specified in Table 2. Time points were obtained by analyzing small aliquots from the reaction mixture through polyacryamide gel electrophoresis (PAGE) and autoradiography.
(§2) Primer extension assays were used to assess the incorporation efficiency of contiguous 2′F-ara(T/C)TPs compared to 2′F-r(U/C)TP on a DNA template (e.g. PF22 or PF24). To this end, a DNA template (e.g. PF22: FIGS. 15, 16, 17A, 18, 21A; PF24: FIGS. 17B, 19, 20, 21B), primer and the appropriate NTPs (e.g. combination of dATP/dCTP/dGTP/ and NTP, where N=dT, 2′F-araT, 2′F-rU, or rU (FIGS. 15, 16, 17A, 18, 21A); or combination of dATP/dGTP/dTTP/ and NTP, where N=dC, 2′F-araC, 2′F-rC, or rC (FIGS. 17B, 19, 20, 21B)), were incubated in the presence one of MMLV-RT, 9N, HIV or DV polymerase. The protocols and conditions are described in Example 2 and Table 2.
(§3) Unless otherwise noticed in the Examples described below, the conditions used in the primer extension assays, such as dNTP concentration, reaction temperatures, concentration of Mg^2+, and reaction buffers (provided by the manufacturers, except for the HIV buffer which was prepared in-house) are shown in Table 2.
(§4) Primer extension assays were used to assess the incorporation of 2′F-araTTP on the DNA template (PF22). The DNA primer (PF20) was first radioactively labeled at the 5′-hydroxyl terminus with a radioactive phosphorus probe and the enzyme T4 polynucleotide kinase (T4 PNK) according to the manufacturer's specifications (MBI Fermentas Life Sciences, Burlington, ON). Incorporation of the ^32P label was accomplished in reaction mixtures consisting of DNA substrate (200 pmol), 2 μl loxreaction buffer (Buffer A for forward reaction: 500 mM Tris-HCl, pH 7.6 at 25° C., 100 mM MgCl2, 50 mM DTT, 1 mM spermidine and 1 mM EDTA), 1 μl T4 PNK enzyme solution (10 U/1 μl in a solution of 20 mM Tris-HCl, pH 7.5, 25 mM KCl, 0.1 mM EDTA, 2 mM DTT and 50% glycerol), 6 μl [γ-^32P]-ATP solution (6000 Ci/mmol, 10 mCi/ml; Amersham Biosciences, Inc.) and autoclaved sterile water to a final volume of 20 μl. The reaction mixture was incubated for about 45-60 min at 37° C., followed by a second incubation for 10 min at 95° C. to heat denature and deactivate the kinase enzyme. The solution was purified according to a standard protocol and the isolated yield of 5′-^32P-DNA following gel extraction averages 50%. The pure labeled samples were kept at −20° C. for future use.
(§5) Usually 2 or 3 folds of cold (unlabeled) DNA primer were combined with the radioactive primer. Then primer to template was mixed together with the final concentration at 85 nM for the primer and 255 nM for the template (i.e. the primer:template=1:3 molar ratio). The primer and template were heated at 95° C. for 5 min and annealed at 4° C. for at least two hours before use. In an Eppendorf tube, the following reagents, 5× or 10× buffer, nucleoside 5′-triphosphates (DATP, dGTP, dCTP, 2′F-araTTP at the same concentrations; see legend of FIG. 2), water, the primer and template mixture, were added together according to pre-calculated reaction volume (20 μL) and concentrations (see reaction conditions in Table 2). Mineral oil (20 μL) was usually used to prevent evaporation. The reaction mixture was incubated at either 37° C. or 55° C. and one of the various enzymes tested was added to initiate the primer extension reactions. […]

MMLV-RT = target: T2, MMLV-RT (Moloney murine leukemia virus, UniProt P03355); experiment: Primer extension assay with MMLV-RT; type: biochemical; conditions: MMLV-RT; 37° C.; DNA template PF22 (T/U triphosphates) or PF24 (C triphosphates); three contiguous units
T2 construct: Reverse transcriptases (RT): • MMLV-RT (MMLV or MM; source: Fermentas); purchased Fermentas
Excerpt: as §1, §2, §3, §4, §5

DNA polymerases = experiment: Primer extension assays, statement for all enzymes studied; type: biochemical; conditions: DNA template PF24; 9N, HIV, MMLV, DV
9N DNA polymerase = target: T3, 9N DNA polymerase (Thermococcus sp., UniProt Q56366, E143D); experiment: Dropout assay, fidelity of incorporation by 9N; type: biochemical, Thermococcus species (strain 9° N-7); conditions: 30 min reaction time, 25 μM triphosphates, 55° C., template A: PF41, G: PF43, T: PF21, C: PF23
T3 construct: purchased New England Biolabs; host or cells: E. coli
Description: (§6) FIG. 11A illustrates the fidelity of 2′F-araATP incorporation on a DNA template PF41 by DV and 9N DNA polymerases. Reaction conditions: 0.8 unit DV and 9N, 25 μM triphosphates at 55° C. in 30 μL reaction volume; incubation time: 30 min. Group 1 & 5: dNTPs; 2 & 6: dropout of dATP; 3 & 7: 2′F-araNTPs, 4 & 8: dropout of 2′F-araATP; 27mer control DNA is PF39.
(§7) FIG. 11B illustrates the fidelity of 2′F-araGTP incorporation on DNA template PF43 by DV and 9N DNA polymerases. Reaction conditions: primer/template (1:1 molar ratio): 100 nM; 0.4 μL (0.8 unit) DV, 9N, 25 μM triphosphate concentration at 55° C. in 30 μL reaction volume. Reaction time for dNTPs (group 1, 5) was 30 min and others were shown above. Group 1 & 5: dNTPs; 2 & 6: drop out dGTP (i.e. dTTP, dCTP and dATP), 3 & 7: 2TF-araNTPs, 4 & 8: drop out 2′F-araGTP; lane P is the template PF41 as the full-length product control; PF39 is a 27-nt DNA control. All samples were analyzed by 12% denaturing PAGE.
(§8) FIG. 12A illustrates the fidelity of 2′F-araTTP incorporation by DV and 9N DNA polymerases on a DNA template PF21. Reaction conditions: 100 nM primer/template (1:1 molar ratio); 0.4 μL (0.8 unit) DV or 9N, 25 μM triphosphate concentration at 55° C. in 30 μL reaction volume. Reaction time for dNTPs (group 1, 5) was 30 min and others were shown above. Groups 1 & 5: dNTPs; 2 & 6: drop out dTTP; 3 & 7: 2′F-araNTPs; 4 & 8: drop out 2′F-araTTPs. in B: group 1 & 5: dNTPs; 2 & 6: drop out dCTP; 3 & 7: 2′F-araNTPs; 4 & 8: drop out 2′F-araCTPs; PF39 is a 27-nt DNA control. All samples were analyzed by 12% denaturing PAGE.
as §8, with “12B” for “12A”, “fidelity study” for “fidelity”, “2′F-araCTP” for “2′F-araTTP”, “PF23.” for “PF21.”, “(groups” for “(group”, “Groups” for “Groups 1 & 5: dNTPs; 2 & 6: drop out dTTP; 3 & 7: 2′F-araNTPs; 4 & 8: drop out 2′F-araTTPs. in B: group”
(§9) “Dropout assays” (Ichida et al. (2005) J. Am. Chem. Soc. 127:2802-2803) were conducted to assess the fidelity of 2′F-araNTP incorporation (each of 2′F-araATP, 2′F-araCTP, 2′F-araGTP and 2′F-araTTP) by various DNA polymerases (FIGS. 11-14). For example, the 2′F-araNTP of interest is removed from the pool, and the ensuing synthesis on DNA template (e.g. PF21, PF23, PF41, PF43) assessed in comparison with a control reaction containing all four 2′F-araNTPs. For comparison, dropout experiments containing dNTPs are run in parallel. Full-length DNA and FANA products are obtained when all four dNTPs (group 1 and 5) and 2′F-araNTPs (groups 3 and 7) were available, however, some pausing may occur during synthesis of the arabinose modified oligomers. Apparent fidelity was calculated according to the equation:
(§10) 1−[(% full-length−2′F-araNTP)/(% full-length+2′F-araNTP)]
(§11) at 30 min reaction time (sample equation for dNTP values). >99% means that the full-length product was not detectable in our dropout assays.
(§12) “Dropout assays” (Ichida et al. (2005) J. Am. Chem. Soc. 127:2802-2803) were conducted to assess apparent fidelity of 2′F-araNTP incorporation by DV and 9N. In one of these assays, 2′F-araATP was removed from the pool, and the ensuing synthesis assessed in comparison with a control reaction containing all four 2′F-araNTPs. For comparison, dropout experiments containing dNTPs were run in parallel (FIGS. 11-14). Full-length DNA and FANA products were obtained when all four dNTPs (group 1 and 5) and 2′F-araNTPs (groups 3 and 7) were available, although some pausing was evident during synthesis of the arabinose modified oligomers.

[1] = system: Phusion DNA polymerase (Ph); experiment: Dropout assay, fidelity of incorporation by Ph; type: biochemical; conditions: 30 min reaction time, 55° C., templates PF21, PF41
Excerpt: FIG. 13 illustrates the fidelity of 2′F-araNTP incorporation on pyrimidine rich DNA template PF21 by Ph DNA polymerase. […] Template PF41 and primer PF20 are shown; PF39 is a 27-nt DNA control.
FIG. 14 illustrates the fidelity of 2′F-araNTP incorporation on purine rich DNA template PF41 by Ph DNA polymerase. The base sequence of the primer, DNA template and resulting terminated products in different dropout conditions (condition 1-5) is shown. […] Lane 1: dNTPs; 2: drop out dCTP (i.e. dATP, dGTP and dTTP, shorten as AGT, same coding for lanes 3-5), lane 6: 2′F-araNTPs; 7: drop out 2′F-araCTP (i.e. 2′F-araATP, 2′F-araGTP, 2′F-araTTP, shorten as AGT; same coding for lanes 8-10). The template PF41 and the primer PF20 are shown; PF39 is a 27mer DNA control.
For example, the 2′F-araNTP of interest is removed from the pool, and the ensuing synthesis on DNA template (e.g. PF21, PF23, PF41, PF43) assessed in comparison with a control reaction containing all four 2′F-araNTPs. For comparison, dropout experiments containing dNTPs are run in parallel. […] Apparent fidelity was calculated according to the equation:
as §10
In one of these assays, 2′F-araATP was removed from the pool, and the ensuing synthesis assessed in comparison with a control reaction containing all four 2′F-araNTPs. For comparison, dropout experiments containing dNTPs were run in parallel (FIGS. 11-14).
Phusion DNA polymerase (Ph) was evaluated for fidelity of 2′F-araNTP incorporation using the same dropout assay. All four dropout experiments were conducted with the same DNA template PF21 (FIG. 13), or PF41 (FIG. 14).

DV DNA polymerase = target: T4, DV DNA polymerase (Pyrococcus sp., UniProt Q51334, D141A/DEL493-1029/E143A); experiment: Dropout assay, fidelity of incorporation by DV; type: biochemical, Pyrococcus species GB-D; conditions: 30 min reaction time, 25 μM triphosphates, 55° C., template A: PF41, G: PF43, T: PF21, C: PF23
T4 construct: purchased New England Biolabs; host or cells: E. coli
Description: as §6, §7, §8
as §8, with “12B” for “12A”, “fidelity study” for “fidelity”, “2′F-araCTP” for “2′F-araTTP”, “PF23.” for “PF21.”, “(groups” for “(group”, “Groups” for “Groups 1 & 5: dNTPs; 2 & 6: drop out dTTP; 3 & 7: 2′F-araNTPs; 4 & 8: drop out 2′F-araTTPs. in B: group”
as §9, §10, §11, §12

[2] = target: Phusion High-Fidelity DNA polymerase (Ph) (UniProt P61875); conditions: apparent fidelity, all 2'F-araNTP and dNTP dropouts; 55 C

O=c1ccn([C@@H]2O[C@H](COP(=O)(O)OP(=O)(O)OP(=O)(O)O)[C@@H](O)[C@H]2O)c(=O)[nH]1 [rUTP, reference compound]
Order of efficiency of incorporation (HIV-1 RT (recombinant)): dTTP > 2′F-araTTP > 2′F-rUTP > UTP
Order of efficiency of incorporation (MMLV-RT): dTTP > 2′F-araTTP > 2′F-rUTP > UTP

Nc1ccn([C@@H]2O[C@H](COP(=O)(O)OP(=O)(O)OP(=O)(O)O)[C@@H](O)[C@H]2O)c(=O)n1 [rCTP, reference compound]
Order of efficiency of incorporation (HIV-1 RT (recombinant)): dCTP~2′F-rCTP ≧ 2′F-araCTP > CTP
order of incorporation efficiency (DNA polymerases): dCTP=2′F-rCTP>2′F-araCTP >>rCTP
Order of efficiency of incorporation (MMLV-RT): dCTP~2′F-rCTP ≧ 2′F-araCTP > CTP

Nc1ncnc2c1ncn2[C@H]1C[C@H](O)[C@@H](COP(=O)(O)OP(=O)(O)OP(=O)(O)O)O1 [dATP]
% Apparent Fidelity, dNTP (9N DNA polymerase): 80%
% Apparent Fidelity, dNTP [1]: >99%
% Apparent Fidelity, dNTP (DV DNA polymerase): 1%

Nc1nc2c(ncn2[C@H]2C[C@H](O)[C@@H](COP(=O)(O)OP(=O)(O)OP(=O)(O)O)O2)c(=O)[nH]1 [dGTP]
% Apparent Fidelity, dNTP (9N DNA polymerase): 84%
% Apparent Fidelity, dNTP [1]: >99%
% Apparent Fidelity, dNTP (DV DNA polymerase): 62%

TAATACGACTCACTATA / TTTGCCACTCTTCTCCCTATAGTGAGTCGTATTA [PF20/PF21 primer-template]
activity [2]: > 99%

TAATACGACTCACTATA / AGAGCCTGAGAAGAGAGTATAGTGAGTCGTATTA [PF20/PF41 primer-template]
activity [2]: > 99%

— patent US20090298708A1, “2'-DEOXY-2'-FLUORO-BETA-D-ARABINONUCLEOSIDE 5'-TRIPHOSPHATES AND THEIR USE IN ENZYMATIC NUCLEIC ACID SYNTHESIS” (priority 2006, published 2009)
